Where two headings read alike, the source gives them in different places.
Legend:
parental Ba/F3 cells = test: Proliferation of parental Ba/F3 cells; format: cell-based, murine; details: parental Ba/F3, with IL-3
Method: FIG. 6: Activity of Pz-1 on NCOA4-RET oncogene-driven IL-3-independent proliferation of murine Ba/F3 cells. […] Ba/F3 and Ba/F3 NCOA4-RET cells were incubated with vehicle (NT) or the indicated concentration of Pz-1 in complete medium and counted at different time points. Data are the mean±SD of one experiment performed in triplicate. Murine interleukin-3 (IL-3) dependent pro-B Ba/F3 cells were from ATCC. Ba/F3 cells stably expressing NCOA4-RET (RET/PTC3) protein were generated by transfecting long isoform (RET-51) of NCOA4-RET by electroporation. Parental and Ba/F3-NCOA4-RET cells were cultured in RPMI 1640 with 10% FBS; parental cells required also 10 ng/ml IL-3. IC50 doses (with Confidence Intervals) are indicated.
Nthy-ory-3-1 and TTcells were seeded in 60-mm dishes. Cells were kept in 2% (Nthy-ori-3-1) or 10% (TT) fetal calf serum. One day after plating, different concentrations of Pz-1 or vehicle were added to the medium and changed every 2-3 days. Cells were counted every 2-3 days. […] Parental and RET/PTC-expressing Ba/F3 were kept in 10% fetal calf serum in 6-multi wells and counted every day for 4 consecutive days, changing media every 2 days. […] IC50 doses were calculated through a curve fitting analysis from the last day of growth curves using the PRISM software program (Graphpad Software Inc). […]

[1] = test system: RET/C634Y transformed NIH3T3 fibroblasts; test: NIH3T3 RET/C634Y tumors in nude mice; format: in vivo, BALB/c nu/nu mice; details: 1.0, 3.0 or 10 mg/kg daily, oral gavage
Description: FIG. 8: Anti-tumorigenic activity of Pz-1 in nude mice implanted with RET/C634Y or HRAS(G12V) transformed NIH3T3 fibroblasts. […] Average tumor volume (±SD: standard deviations) is reported. NIH3T3 RET/C634Y (200,000 cells) or NIH3T3 HRAS/G12V (50,000 cells) were inoculated subcutaneously into dorsal portion (both sides) of 6-week-old female BALB/c nu/nu mice (n. 31 mice/cell line) (Jackson Laboratories, Bar Harbor, Me.). After 4 days, before tumors had appeared, animals were randomly assigned to receive Pz-1 (1.0, 3.0 or 10 mg/kg daily) (23 mice/cell line: 8 mice/group for 1.0 and 3.0 mg/kg daily doses and 7 mice for 10 dose mg/kg daily) or vehicle control (8 mice) by oral gavage. Tumor diameters were measured with calipers every 1-2 days. Tumor volumes (V) were calculated by the rotational ellipsoid formula and reported as average volumes±standard deviations. […]
TT cells (7.5×10^6/mouse) were inoculated subcutaneously into dorsal portions (both sides) of 39 SCID mice (Jackson Laboratories, Bar Harbor, Me.). […] Tumor diameters were measured with callipers every week. Tumor volumes (V) were calculated by the rotational ellipsoid formula: V=A×B^2/2 (A=axial diameter; B=rotational diameter) and reported as average volumes±standard deviations. […] Anti-tumorigenic activity of Pz-1 was also assessed in nude mice implanted with RET/C634Y or HRAS(G12V) transformed NIH3T3 fibroblasts. […]

PK study in mice = format: in vivo; details: for half-life: mouse, in vivo
Method: For PK studies of Pz-1 in animals, a solution formulation for oral administration was created in 500 μL of polysorbate 80, 500 μL of EtOH, and 1.0 mL of pH 2 buffer. For the toxicity studies, a suspension formulation was developed in tween 20 (20%) and xanthan gum (0.125%).
T112 (3-4 hrs) in rats was in line with T1/2 in mice (4.2 hrs).

With `Cn1cc(-c2ccc3c(c2)ncn3-c2ccc(CC(=O)Nc3cc(C(C)(C)C)on3)cc2)cn1` [Pz-1, N-(5-(tert-butyl)isoxazol-3-yl)-2-(4-(5-(1-methyl-1H-pyrazol-4-yl)-1H-benzo[d]imidazol-1-yl)phenyl)acetamide] the inhibition of proliferation (parental Ba/F3 cells) was “inhibition of proliferation by Pz-1 for Ba/F3-NCOA4-RET but not parental Ba/F3”, the “formation of tumors induced by RET cells” value [1] was “totally prevented formation of tumors” and the AUC (PK study in mice; 2 mg/kg, solution formulation) was 6.5 µg/h/mL. The half-life (PK study in mice; oral, read-out: T1/2 (converted)) was 4.2 h and the half-life (PK study in mice; po, 2 mg/kg, read-out: elimination half-life (converted)) was 3.8 h.

From patent US9988371B2, “Benzimidazole analogues and related methods” (The Arizona Board of Regents, on Behalf of the University …, priority 2014, dated 2018)
